# Assay results reported in publication PMC12116762, “Topobexin targets the Topoisomerase II ATPase domain for beta isoform-selective inhibition and anthracycline cardioprotection” (Nature Communications, 2025).
# Several values for one entry are separate records, joined by “and”; a condition that tells them apart may be missing. Equal entries are not always repeated.
# What was measured:
# Assay type in all cases: biochemical
# recombinant human TOP2A [1] = target: T1, recombinant human TOP2A (Homo sapiens, UniProt P11388); experiment: In vitro ATPase activity of TOP2A (coupled assay); conditions: for IC50: n=3
# T1 construct: Using recombinant full-length human TOP2A and TOP2B enzymes; YFP (N, cleaved yes); made in house; host or cells: HEK293F
# T1 sequence (P11388 whole entry): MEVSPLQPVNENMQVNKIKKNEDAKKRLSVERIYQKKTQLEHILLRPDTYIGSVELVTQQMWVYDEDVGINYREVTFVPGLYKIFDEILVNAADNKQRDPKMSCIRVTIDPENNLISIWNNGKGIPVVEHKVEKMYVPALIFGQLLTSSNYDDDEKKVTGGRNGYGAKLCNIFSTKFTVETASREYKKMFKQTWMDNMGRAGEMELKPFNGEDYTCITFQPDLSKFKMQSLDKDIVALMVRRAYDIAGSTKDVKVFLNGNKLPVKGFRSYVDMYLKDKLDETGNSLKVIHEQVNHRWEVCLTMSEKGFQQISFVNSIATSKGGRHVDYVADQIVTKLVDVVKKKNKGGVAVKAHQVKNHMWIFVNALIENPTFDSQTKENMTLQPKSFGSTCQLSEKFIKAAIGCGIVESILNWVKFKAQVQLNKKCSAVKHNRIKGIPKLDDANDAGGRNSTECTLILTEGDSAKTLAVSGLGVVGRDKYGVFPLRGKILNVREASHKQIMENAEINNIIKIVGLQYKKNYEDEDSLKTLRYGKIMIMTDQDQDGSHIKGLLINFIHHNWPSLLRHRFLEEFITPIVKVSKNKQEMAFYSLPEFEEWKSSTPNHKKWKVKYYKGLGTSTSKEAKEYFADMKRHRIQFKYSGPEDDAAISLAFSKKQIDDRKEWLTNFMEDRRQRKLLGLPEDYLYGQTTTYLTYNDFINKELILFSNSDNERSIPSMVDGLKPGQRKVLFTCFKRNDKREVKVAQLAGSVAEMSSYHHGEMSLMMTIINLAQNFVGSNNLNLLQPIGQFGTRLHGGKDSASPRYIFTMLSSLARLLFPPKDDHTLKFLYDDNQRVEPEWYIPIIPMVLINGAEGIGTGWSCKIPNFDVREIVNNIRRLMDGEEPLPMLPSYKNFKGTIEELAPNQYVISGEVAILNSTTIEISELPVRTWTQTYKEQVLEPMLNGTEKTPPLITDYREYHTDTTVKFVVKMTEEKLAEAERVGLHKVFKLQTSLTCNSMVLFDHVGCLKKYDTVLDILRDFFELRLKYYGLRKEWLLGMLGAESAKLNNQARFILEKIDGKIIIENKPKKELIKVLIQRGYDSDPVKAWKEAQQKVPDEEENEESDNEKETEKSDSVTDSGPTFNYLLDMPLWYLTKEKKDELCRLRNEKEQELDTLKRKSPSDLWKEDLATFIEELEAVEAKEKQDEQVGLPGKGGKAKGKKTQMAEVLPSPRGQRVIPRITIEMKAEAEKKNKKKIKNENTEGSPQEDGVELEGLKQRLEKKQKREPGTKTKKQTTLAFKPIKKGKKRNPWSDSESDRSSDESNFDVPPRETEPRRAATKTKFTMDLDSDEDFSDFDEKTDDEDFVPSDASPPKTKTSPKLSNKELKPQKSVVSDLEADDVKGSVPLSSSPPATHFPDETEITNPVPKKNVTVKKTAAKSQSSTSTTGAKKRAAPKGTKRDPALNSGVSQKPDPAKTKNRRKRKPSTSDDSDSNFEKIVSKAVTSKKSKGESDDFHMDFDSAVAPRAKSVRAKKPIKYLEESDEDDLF
# Description: Topoisomerase proteins were diluted to 500 nM in storage buffer containing 20 mM HEPES pH 7.5, 500 mM NaCl, 0.5 mM TCEP, 25% glycerol, and 0.2 mg/mL BSA prior to use. A coupled assay was used to measure TOP2-catalyzed ATP hydrolysis in vitro[37] in Costar 96-well plates (Corning Incorporated). […] Reaction plates were pre-warmed to 30 °C for 5 min and ATP was added last to initiate the reaction. The reaction plate was placed in a CLARIOstarPlus plate reader (BMG Labtech) to measure NADH fluorescence at 30 °C every 30 s over 120 cycles using a 340-60 excitation filter and a 480-100 emission filter. Background fluorescence signals calculated from wells containing no ATP were subtracted from each measurement. The slope of NADH fluorescence decay in each well was calculated using the MARS software (BMG Labtech) and reaction wells that lacked topoisomerase inhibitor to account for photobleaching of NADH fluorescence served as background subtraction. Each presented data point was obtained from distinct sample. Values were normalized to untreated controls and plotted as a function of inhibitor concentration to determine IC50 values using Prism 9 (GraphPad).
# recombinant human TOP2B = target: T2, recombinant human TOP2B (Homo sapiens, UniProt Q02880); experiment: DNA decatenation assay, recombinant TOP2B; conditions: for SRbeta (SRTOP2B), decatenation activity: TOP2A IC50 divided by TOP2B IC50; for IC50: enzyme expressed in HEK293F, n=3
# T2 construct: Using recombinant full-length human TOP2A and TOP2B enzymes; YFP (N, cleaved yes); made in house; host or cells: HEK293F
# T2 sequence (Q02880 1-1621 isoform Q02880-2): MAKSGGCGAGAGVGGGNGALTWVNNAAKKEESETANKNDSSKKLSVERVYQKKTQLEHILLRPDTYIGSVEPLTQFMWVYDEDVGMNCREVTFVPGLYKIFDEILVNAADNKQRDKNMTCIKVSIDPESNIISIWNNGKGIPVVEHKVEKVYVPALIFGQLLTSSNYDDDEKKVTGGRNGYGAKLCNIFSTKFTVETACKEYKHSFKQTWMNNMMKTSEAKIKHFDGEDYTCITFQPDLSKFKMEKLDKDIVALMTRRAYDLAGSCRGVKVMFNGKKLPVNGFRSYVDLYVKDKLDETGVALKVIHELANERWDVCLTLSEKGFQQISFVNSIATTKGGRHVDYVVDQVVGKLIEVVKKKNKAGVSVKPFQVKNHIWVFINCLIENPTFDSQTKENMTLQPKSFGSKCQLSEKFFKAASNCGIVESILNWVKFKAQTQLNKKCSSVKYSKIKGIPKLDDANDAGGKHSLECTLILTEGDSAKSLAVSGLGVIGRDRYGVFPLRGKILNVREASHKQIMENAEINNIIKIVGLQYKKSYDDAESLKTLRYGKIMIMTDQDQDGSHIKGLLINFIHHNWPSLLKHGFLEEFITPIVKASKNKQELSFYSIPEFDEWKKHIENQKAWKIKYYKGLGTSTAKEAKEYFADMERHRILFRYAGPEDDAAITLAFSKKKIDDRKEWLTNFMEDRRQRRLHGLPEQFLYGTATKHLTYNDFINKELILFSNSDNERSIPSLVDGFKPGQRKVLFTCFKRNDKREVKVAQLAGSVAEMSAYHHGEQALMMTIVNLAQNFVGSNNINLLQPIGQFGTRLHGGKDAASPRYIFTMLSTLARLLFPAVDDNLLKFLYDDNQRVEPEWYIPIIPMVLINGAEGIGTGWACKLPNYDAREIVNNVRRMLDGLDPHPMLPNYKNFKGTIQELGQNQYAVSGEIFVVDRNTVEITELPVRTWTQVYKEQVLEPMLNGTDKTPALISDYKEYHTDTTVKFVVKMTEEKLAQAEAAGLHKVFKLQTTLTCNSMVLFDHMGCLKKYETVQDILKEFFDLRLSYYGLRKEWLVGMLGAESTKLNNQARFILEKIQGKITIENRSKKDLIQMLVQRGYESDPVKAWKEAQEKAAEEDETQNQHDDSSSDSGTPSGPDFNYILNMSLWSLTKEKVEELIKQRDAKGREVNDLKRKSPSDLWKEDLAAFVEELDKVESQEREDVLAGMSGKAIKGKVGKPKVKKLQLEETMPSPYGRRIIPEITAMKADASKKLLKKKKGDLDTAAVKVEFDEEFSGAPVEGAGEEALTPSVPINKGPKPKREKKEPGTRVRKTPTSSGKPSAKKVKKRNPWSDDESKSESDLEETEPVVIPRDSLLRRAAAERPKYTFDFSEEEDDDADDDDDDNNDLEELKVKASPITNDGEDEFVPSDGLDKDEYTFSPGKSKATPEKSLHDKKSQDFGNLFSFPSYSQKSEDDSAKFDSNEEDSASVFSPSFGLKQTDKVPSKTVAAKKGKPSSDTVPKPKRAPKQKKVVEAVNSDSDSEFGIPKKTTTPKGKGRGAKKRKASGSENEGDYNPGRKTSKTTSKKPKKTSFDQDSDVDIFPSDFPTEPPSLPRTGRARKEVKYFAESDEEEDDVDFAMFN
# Description: (§1) The human topoisomerase II decatenation assay was performed to determine the inhibitory effects of BNS-22 and new compounds as previously described with minor modifications[14],[36]. The assay was performed using recombinant human TOP2A or TOP2B generated using the HEK293F YFP-tag expression system as previously described[18],[19],[36]. Briefly, plasmids encoding YFP-TOP2A or YFP-TOP2B were transfected into HEK293F cells (Catalog number 11625019, Thermofisher Scientific), and TOP2 proteins were isolated from cell lysates by anti-YFP nanobody affinity chromatography. After elution by TEV protease cleavage, TOP2 proteins were FPLC purified by sequential cation exchange and size exclusion chromatography. Plasmid encoding TOP2B C88Y was generated by round-the-horn PCR mutagenesis and the sequence was verified by full-plasmid sequencing. Purified TOP2 proteins were stored in a storage buffer containing 20 mM HEPES pH 7.5, 500 mM NaCl, 0.5 mM TCEP, 25% (v/v) glycerol at -80 °C. For decatenation assays, purified TOP2 proteins were incubated with 200 ng kDNA (Topogen) in a reaction buffer containing 50 mM Tris−HCl (pH 8), 100 mM NaCl, 10 mM MgCl2, 0.5 mM DTT, 2 mM ATP, 0.1 mM tris(2-carboxyethyl)phosphine (TCEP), 5% (v/v) glycerol, 70 μg/mL bovine serum albumin, and 1/10 volume of each compound diluted in 10% DMSO (final DMSO concentration 1%) for 40 min at 37 °C. The reaction was then stopped by the addition of gel loading buffer (0.5 volumes of 60% (w/v) glycerol, 60 mM EDTA, 20 mM Tris−HCl (pH 7.5), 0.5 mg/mL bromophenol blue) and the samples were placed on ice. Reaction products were resolved by agarose gel electrophoresis in TBE buffer containing GelRed stain (Biotium). Gels were visualized using an iBright CL1000 (Thermofisher Scientific). Band intensities were quantified using FIJI, and the signal of the treated samples was normalized to the value of the control (untreated sample; 100%) present on the same gel. The normalized signal of three independent measurements was then expressed as mean ± SD. Each presented data point was obtained from distinct sample. Normalized values were plotted as a function of inhibitor concentration to determine IC50 values by nonlinear regression with variable slope using Prism 9 (GraphPad).
# recombinant human TOP2A [2] = target: T1, recombinant human TOP2A; experiment: DNA decatenation assay, recombinant TOP2A; conditions: for IC50: enzyme expressed in HEK293F, n=3
# Description: as §1
# [3] = 0.125 μM, independent replicates, read-out: Normalized % TOP2A activity, ATPase
# [4] = 0.25 μM, independent replicates, read-out: Normalized % TOP2A activity, ATPase
# [5] = 1 μM, independent replicates, read-out: Normalized % TOP2A activity, ATPase
# [6] = 4 μM, independent replicates, read-out: Normalized % TOP2A activity, ATPase
# [7] = 8 μM, independent replicates, read-out: Normalized % TOP2A activity, ATPase
# [8] = 0.029 μM, independent replicates
# [9] = 0.059 μM, independent replicates
# [10] = 0.117 μM, independent replicates
# [11] = 0.234 μM, independent replicates
# [12] = 0.469 μM, independent replicates
# [13] = 0.938 μM, independent replicates
# [14] = 1.875 μM, independent replicates
# [15] = 3.750 μM, independent replicates
# [16] = 7.500 μM, independent replicates
# [17] = 15.000 μM, independent replicates
# [18] = 30.000 μM, independent replicates
smiles,measurement,setting,value
CCCc1cc(=O)oc2c(C(=O)N3CCCc4ccccc43)c(OCCO)ccc12 [5c],remaining activity at 0.03125 µM,"recombinant human TOP2A [1]; 0.03125 μM, independent replicates, read-out: Normalized % TOP2A activity, ATPase",97.4%
same,remaining activity at 0.0625 µM,"recombinant human TOP2A [1]; 0.0625 μM, independent replicates, read-out: Normalized % TOP2A activity, ATPase",86.8%
same,remaining activity at 0.125 µM,recombinant human TOP2A [1]; [3],79.9%
same,remaining activity at 0.25 µM,recombinant human TOP2A [1]; [4],62.7%
same,remaining activity at 0.5 µM,"recombinant human TOP2A [1]; 0.5 μM, independent replicates, read-out: Normalized % TOP2A activity, ATPase",45.9%
same,remaining activity at 1 µM,recombinant human TOP2A [1]; [5],25.8%
same,remaining activity at 2 µM,"recombinant human TOP2A [1]; 2 μM, independent replicates, read-out: Normalized % TOP2A activity, ATPase",11.6%
same,remaining activity at 4 µM,recombinant human TOP2A [1]; [6],6.58%
same,remaining activity at 8 µM,recombinant human TOP2A [1]; [7],3.17%
same,IC50,recombinant human TOP2A [1],1.54 µM
same,remaining activity at 0.059 µM,"recombinant human TOP2B; 0.059 μM, independent replicates, read-out: Normalized % TOP2B activity, decatenation",106%
same,remaining activity at 0.117 µM,"recombinant human TOP2B; 0.117 μM, independent replicates, read-out: Normalized % TOP2B activity, decatenation",112%
same,remaining activity at 0.938 µM,"recombinant human TOP2B; 0.938 μM, independent replicates, read-out: Normalized % TOP2B activity, decatenation",66.9%
same,remaining activity at 1.875 µM,"recombinant human TOP2B; 1.875 μM, independent replicates, read-out: Normalized % TOP2B activity, decatenation",29.8%
same,"SRbeta (SRTOP2B), decatenation activity",recombinant human TOP2B,2.2
same,IC50,recombinant human TOP2B,1.43 µM
same,IC50,recombinant human TOP2A [2],3.21 µM
CCCc1cc(=O)oc2c(C(=O)N3CCCc4ccccc43)c(OC)cc(OC)c12 [BNS-22],"Normalized % TOP2A activity, ATPase","recombinant human TOP2A [1]; 0.03125 μM, independent replicates",106.5339% and 96.82% and 104.97%
same,"Normalized % TOP2A activity, ATPase","recombinant human TOP2A [1]; 0.0625 μM, independent replicates",99.93% and 96.81% and 104.654%
same,"Normalized % TOP2A activity, ATPase","recombinant human TOP2A [1]; 0.125 μM, independent replicates",97.92% and 87.09% and 103.8686%
same,"Normalized % TOP2A activity, ATPase","recombinant human TOP2A [1]; 0.25 μM, independent replicates",84.39% and 86.41% and 95.01%
same,"Normalized % TOP2A activity, ATPase","recombinant human TOP2A [1]; 0.5 μM, independent replicates",68.7163% and 74.39% and 48.12%
same,"Normalized % TOP2A activity, ATPase","recombinant human TOP2A [1]; 1 μM, independent replicates",44.71% and 47.48% and 56.42%
same,"Normalized % TOP2A activity, ATPase","recombinant human TOP2A [1]; 2 μM, independent replicates",21.32% and 23.49% and 28.53%
same,"Normalized % TOP2A activity, ATPase","recombinant human TOP2A [1]; 4 μM, independent replicates",7.817% and 9.176% and 12.94%
same,"Normalized % TOP2A activity, ATPase","recombinant human TOP2A [1]; 8 μM, independent replicates",4.538% and 5.681% and 5.457%
same,"Normalized % TOP2A activity, ATPase","recombinant human TOP2A [1]; 16 μM, independent replicates",3.325% and 1.312% and 2.254%
same,"Normalized % TOP2A activity, ATPase","recombinant human TOP2A [1]; 32 μM, independent replicates",1.897% and 0.9839% and 2.191%
same,IC50,recombinant human TOP2A [1],1.27 µM
same,"Normalized % TOP2B activity, decatenation",recombinant human TOP2B; [8],110.4% and 102.5% and 86.14%
same,"Normalized % TOP2B activity, decatenation",recombinant human TOP2B; [9],117.4% and 95.62% and 85.84%
same,"Normalized % TOP2B activity, decatenation",recombinant human TOP2B; [10],120.4% and 94.08% and 92.01%
same,"Normalized % TOP2B activity, decatenation",recombinant human TOP2B; [11],93.24% and 96.15% and 88.28%
same,"Normalized % TOP2B activity, decatenation",recombinant human TOP2B; [12],119.4% and 102% and 86.29%
same,"Normalized % TOP2B activity, decatenation",recombinant human TOP2B; [13],128.5% and 90.51% and 82.07%
same,"Normalized % TOP2B activity, decatenation",recombinant human TOP2B; [14],113% and 60.36% and 75.6%
same,"Normalized % TOP2B activity, decatenation",recombinant human TOP2B; [15],78.05% and 36.23% and 45.78%
same,"Normalized % TOP2B activity, decatenation",recombinant human TOP2B; [16],36.99% and 17.69% and 24.26%
same,"Normalized % TOP2B activity, decatenation",recombinant human TOP2B; [17],19.21% and 12.13% and 18.98%
same,"Normalized % TOP2B activity, decatenation",recombinant human TOP2B; [18],18.37% and 9.163% and 14.61%
same,"SRbeta (SRTOP2B), decatenation activity",recombinant human TOP2B,1.6
same,IC50,recombinant human TOP2B,4 µM
same,"Normalized % TOP2A activity, decatenation",recombinant human TOP2A [2]; [8],129.2% and 104.9% and 108.1%
same,"Normalized % TOP2A activity, decatenation",recombinant human TOP2A [2]; [9],115.3% and 107.3% and 87.18%
same,"Normalized % TOP2A activity, decatenation",recombinant human TOP2A [2]; [10],112.3% and 85.14% and 77.75%
same,"Normalized % TOP2A activity, decatenation",recombinant human TOP2A [2]; [11],113.6% and 104.1% and 111.1%
same,"Normalized % TOP2A activity, decatenation",recombinant human TOP2A [2]; [12],107.6% and 108.2% and 94.85%
same,"Normalized % TOP2A activity, decatenation",recombinant human TOP2A [2]; [13],110.1% and 99.05% and 142.1%
same,"Normalized % TOP2A activity, decatenation",recombinant human TOP2A [2]; [14],103.6% and 97.25% and 87.84%
same,"Normalized % TOP2A activity, decatenation",recombinant human TOP2A [2]; [15],92.41% and 84.64% and 69.95%
same,"Normalized % TOP2A activity, decatenation",recombinant human TOP2A [2]; [16],58.26% and 36.7% and 30.82%
same,"Normalized % TOP2A activity, decatenation",recombinant human TOP2A [2]; [17],19.52% and 10.3% and 12.12%
same,"Normalized % TOP2A activity, decatenation",recombinant human TOP2A [2]; [18],7.598% and 6.508% and 9.979%
same,IC50,recombinant human TOP2A [2],6.51 µM
C[C@@H](CN1CC(=O)NC(=O)C1)N1CC(=O)NC(=O)C1 [dexrazoxane],remaining activity at 0.125 µM,recombinant human TOP2A [1]; [3],90.6%
same,remaining activity at 0.25 µM,recombinant human TOP2A [1]; [4],86.6%
same,remaining activity at 1 µM,recombinant human TOP2A [1]; [5],62.9%
same,remaining activity at 4 µM,recombinant human TOP2A [1]; [6],29.5%
same,remaining activity at 8 µM,recombinant human TOP2A [1]; [7],19%
same,remaining activity at 16 µM,"recombinant human TOP2A [1]; 16 μM, independent replicates, read-out: Normalized % TOP2A activity, ATPase",14.4%
same,IC50,recombinant human TOP2A [1],2.27 µM
same,remaining activity at 0.029 µM,"recombinant human TOP2B; 0.029 μM, independent replicates, read-out: Normalized % TOP2B activity, decatenation",88.8%
same,remaining activity at 0.469 µM,"recombinant human TOP2B; 0.469 μM, independent replicates, read-out: Normalized % TOP2B activity, decatenation",75.2%
same,remaining activity at 15 µM,"recombinant human TOP2B; 15.000 μM, independent replicates, read-out: Normalized % TOP2B activity, decatenation",12.9%
same,remaining activity at 30 µM,"recombinant human TOP2B; 30.000 μM, independent replicates, read-out: Normalized % TOP2B activity, decatenation",5.87%
same,"SRbeta (SRTOP2B), decatenation activity",recombinant human TOP2B,0.75
same,IC50,recombinant human TOP2B,4.5 µM
same,remaining activity at 0.059 µM,"recombinant human TOP2A [2]; 0.059 μM, independent replicates, read-out: Normalized % TOP2A activity, decatenation",112%
same,remaining activity at 0.469 µM,"recombinant human TOP2A [2]; 0.469 μM, independent replicates, read-out: Normalized % TOP2A activity, decatenation",114%
same,remaining activity at 0.938 µM,"recombinant human TOP2A [2]; 0.938 μM, independent replicates, read-out: Normalized % TOP2A activity, decatenation",94.4%
same,remaining activity at 1.875 µM,"recombinant human TOP2A [2]; 1.875 μM, independent replicates, read-out: Normalized % TOP2A activity, decatenation",68.7%
same,remaining activity at 7.5 µM,"recombinant human TOP2A [2]; 7.500 μM, independent replicates, read-out: Normalized % TOP2A activity, decatenation",33.6%
same,IC50,recombinant human TOP2A [2],3.35 µM
